Laboratory results: the supplement of paper PMC5908809

Legend:
Test in all cases: relative IC50 (inflection point of fitted viability curve, relative to fitted max inhibition); higher = less sensitive
Settings in all cases: 72 h
KHYG-1 (IL-2 2.5 ng/mL) = test system: KHYG-1 (IL-2 2.5 ng/mL)
Description: (§1)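 Drug sensitivity and resistance testing: 5 concentrations over a 10,000-fold range, 72 h at 37 °C, viability by CellTiter-Glo normalised to DMSO and benzethonium chloride controls. IC50 is the inflection point of a logistic fit (min fixed at 0, max fitted), so it is relative to the fitted maximal inhibition. Kept only where fitted max inhibition is at least 50%.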

NK-92 (IL-2 2.5 ng/mL) = test system: NK-92 (IL-2 2.5 ng/mL)
Description: as §1

SNK-6 (IL-2 2.5 ng/mL) = test system: SNK-6 (IL-2 2.5 ng/mL)
Description: as §1

[1] = test system: normal primary NK cells, pool 3 (3 donors) (IL-2 2.5 ng/mL)
Description: as §1

YT (IL-2 2.5 ng/mL) = test system: YT (IL-2 2.5 ng/mL)
Description: as §1

NK-YS (IL-2 2.5 ng/mL) = test system: NK-YS (IL-2 2.5 ng/mL)
Description: as §1

KAI3 (IL-2 2.5 ng/mL) = test system: KAI3 (IL-2 2.5 ng/mL)
Description: as §1

DERL-7 (IL-2 2.5 ng/mL) = test system: DERL-7 (IL-2 2.5 ng/mL)
Description: as §1

[2] = test system: normal primary NK cells, pool 1 (3 donors), resting (IL-2 0 ng/mL)
Description: as §1

NKL (IL-2 2.5 ng/mL) = test system: NKL (IL-2 2.5 ng/mL)
Description: as §1

[3] = test system: normal primary NK cells, pool 1 (3 donors) (IL-2 2.5 ng/mL)
Description: as §1

[4] = test system: normal primary NK cells, pool 2 (3 donors) (IL-2 2.5 ng/mL)
Description: as §1

IMC-1 (IL-2 20 ng/mL) = test system: IMC-1 (IL-2 20 ng/mL)
Description: as §1

Row | SMILES | relative IC50 (KHYG-1 (IL-2 2.5 ng/mL)) [nM] | relative IC50 (NK-92 (IL-2 2.5 ng/mL)) [nM] | relative IC50 (SNK-6 (IL-2 2.5 ng/mL)) [nM] | relative IC50 [1] [nM] | relative IC50 (YT (IL-2 2.5 ng/mL)) [nM] | relative IC50 (NK-YS (IL-2 2.5 ng/mL)) [nM] | relative IC50 (KAI3 (IL-2 2.5 ng/mL)) [nM] | relative IC50 (DERL-7 (IL-2 2.5 ng/mL)) [nM] | relative IC50 [2] [nM] | relative IC50 (NKL (IL-2 2.5 ng/mL)) [nM] | relative IC50 [3] [nM] | relative IC50 [4] [nM] | relative IC50 (IMC-1 (IL-2 20 ng/mL)) [nM]
1 | COc1cc(O)c2c(c1)/C=C/C[C@H](O)[C@H](O)C(=O)/C=C\C[C@H](C)OC2=O [(5Z)-7-Oxozeaenol] | 480 | 1510 | 1560 | 2050 | 1060 | 1140 | 797 | 572 | 688 | 156 | 782 | 1600 | –
2 | O=C1NC(=O)/C(=C/c2ccc3nccc(-c4ccncc4)c3c2)S1 | 681 | 1200 | 1100 | 1650 | 529 | 810 | 846 | 543 | 116 | 644 | 749 | 1250 | –
3 | CN1CCN(c2cc(C(=O)Nc3ccc4c(c3)-c3c(c(C(N)=O)nn3-c3ccc(F)cc3)CC4)c(Cl)cn2)CC1 [PHA 408] | 2990 | 2090 | 1620 | 2780 | 1920 | 2440 | 940 | 1350 | 2140 | 1620 | 2590 | 2100 | 2970
4 | COc1cccc2c1C(=O)c1c(O)c3c(c(O)c1C2=O)C[C@@](O)(C(C)=O)C[C@@H]3O[C@H]1C[C@H](N)[C@H](O)[C@H](C)O1 [Daunorubicin] | 38.2 | 45.7 | 34.7 | 42 | 40.8 | 31.1 | 54.5 | 21.7 | 15.7 | 3.74 | 21.6 | 20.8 | 19.2
5 | COC(=O)c1ccc2c(c1)NC(=O)/C2=C(\Nc1ccc(N(C)C(=O)CN2CCN(C)CC2)cc1)c1ccccc1 [Nintedanib] | 1720 | 1070 | 4280 | 2730 | 2580 | 1700 | 1850 | 1210 | 1010 | 902 | 1200 | 1580 | 3980
6 | Cn1cc(C2=Nc3cc(NC(=O)C(N)C4CCCCC4)cc4c3C2=CNNC4=O)cn1 (centres undefined) | 134 | 505 | 238 | 1960 | 492 | 442 | 215 | 1000 | – | 652 | 3520 | 2370 | 259
7 | CC(C)Oc1ccc(C(=O)N[C@H](CNC(=O)CN(C)C)Cc2ccc(-c3cn4cccc([C@H](C)O)c4n3)cc2)cc1Cl | 123 | 204 | 24.9 | – | 48.2 | 56.7 | 439 | 70.3 | 4570 | 54.3 | – | – | 261
8 | C=CC(=O)Nc1cc2c(Nc3ccc(F)c(Cl)c3)ncnc2cc1OCCCN1CCOCC1 [Canertinib] | 2670 | 1180 | 2980 | 1290 | 1970 | 1990 | 1100 | 1080 | 333 | 1290 | 402 | 710 | 3700
9 | COc1cccc2c1c(O)c(C(=O)N(C)c1ccc(C(F)(F)F)cc1)c(=O)n2C [Tasquinimod] | – | – | – | > 10000 | – | – | – | > 10000 | – | – | – | > 10000 | –
10 | CCn1c(-c2nonc2N)nc2c(C#CC(C)(C)O)ncc(OC[C@H]3CCCNC3)c21 | – | – | – | 1870 | – | – | – | 269 | 1730 | – | 2160 | 2190 | –
11 | NC(=O)c1ccc(I)c([N+](=O)[O-])c1 [Iniparib] | – | – | – | – | – | – | – | – | 1360 | – | 1620 | – | –
12 | CC(=O)N(O)CCCCCNC(=O)CCC(=O)N(O)CCCCCNC(=O)CCC(=O)N(O)CCCCCN [Deferoxamine] | – | – | – | 1580 | – | – | – | – | – | – | – | – | 3210
13 | CCn1c(-c2nonc2N)nc2cnc(Oc3cccc(NC(=O)c4ccc(OCCN5CCOCC5)cc4)c3)cc21 | 1120 | 287 | 50.4 | 1610 | – | – | 1280 | 63.4 | 1660 | 1070 | 1540 | 1970 | –
14 | COC(=O)C[C@](O)(CCCC(C)(C)O)C(=O)O[C@@H]1C(OC)=C[C@]23CCCN2CCc2cc4c(cc2[C@H]13)OCO4 [Omacetaxine] | 35.2 | 25.7 | 6.73 | 10.6 | 17.5 | 30.7 | 6.32 | 7.54 | 1.15 | 29.8 | 6.62 | 5.02 | 33.6
15 | C[C@H]1C[C@@H]2[C@H]([C@@H](O)C[C@@]3(C)[C@H]2CC[C@]3(O)C(=O)CO)[C@@]2(C)C=CC(=O)C=C12 [Methylprednisolone] | 197 | – | – | 88.8 | 164 | – | – | 22.1 | 9.66 | 13.3 | 33.4 | 41.7 | > 10000
16 | C[C@@H]1C[C@H]2O[C@@H]2/C=C\C=C\C(=O)Cc2c(Cl)c(O)cc(O)c2C(=O)O1 [Radicicol] | 209 | 130 | 81.8 | 132 | 423 | 198 | 72.1 | 37.3 | 520 | 134 | 126 | 75.2 | 310
17 | NCC(=O)Nc1ccc(-n2nc(C(F)(F)F)cc2-c2ccc3c(ccc4ccccc43)c2)cc1 | 1310 | 4950 | 3810 | 7230 | 5540 | 1980 | 4900 | – | – | 4070 | – | 7200 | 4370
18 | O=C(O)C(=O)O.[NH-][C@@H]1CCCC[C@H]1[NH-].[Pt+2] [Oxaliplatin] | – | – | – | 9130 | – | – | – | – | – | – | – | 9290 | 9490
19 | CC1(C)CCC(CN2CCN(c3ccc(C(=O)NS(=O)(=O)c4ccc(NCC5CCOCC5)c([N+](=O)[O-])c4)c(Oc4cnc5[nH]ccc5c4)c3)CC2)=C(c2ccc(Cl)cc2)C1 [Venetoclax] | 1280 | 1730 | 34.8 | – | 415 | 1450 | 7.28 | 211 | 8.76 | 115 | 859 | – | –
20 | CNC(=O)c1cc(Oc2ccc(NC(=O)Nc3cc(C(C)(C)C)nn3-c3ccc4ncccc4c3)c(F)c2)ccn1 [Rebastinib] | – | – | – | > 1000 | – | – | – | – | – | – | > 1000 | > 1000 | –
21 | CC(=O)c1c(C)c2cnc(Nc3ccc(N4CCNCC4)cn3)nc2n(C2CCCC2)c1=O [Palbociclib] | 279 | 1780 | – | 3430 | – | 413 | 3090 | 1380 | 4040 | 1550 | 3580 | 2850 | 2620
22 | Cc1cnc(NC(=O)Nc2cc(Br)c(C)cc2OC[C@@H]2CNCCO2)cn1 [Rabusertib] | 197 | 172 | 179 | – | – | 279 | 203 | – | – | 192 | > 1000 | – | –
23 | O=C(c1ccc(/C=C/c2n[nH]c3ccccc23)cc1)N1CCNCC1 [KW-2449] | 807 | – | 687 | > 2500 | – | – | – | 920 | – | – | – | – | > 2500
24 | O=c1[nH]c(=O)n([C@H]2C[C@H](O)[C@@H](CO)O2)cc1F [Floxuridine] | 8.42 | 19.5 | 68.6 | > 10000 | 286 | 28.9 | 10.1 | 31 | – | 75.2 | – | – | 128
25 | CCN(CC)CCCC(C)Nc1c2ccc(Cl)cc2nc2ccc(OC)cc12 (centres undefined) [Mepacrine] | – | – | – | 1550 | – | – | – | – | – | – | – | 1220 | 1500
26 | Cc1sc2c(c1C)C(c1ccc(Cl)cc1)=N[C@@H](CC(=O)Nc1ccc(O)cc1)c1nnc(C)n1-2 [OTX015] | 145 | – | 43 | 804 | 241 | 229 | 437 | 48.1 | – | 75.2 | 171 | 393 | 630
27 | FC(F)(F)c1ccc(/C=C/c2nc(COc3ccc(CCCCn4ccnn4)cc3)co2)cc1 [Mubritinib] | 45.7 | – | – | – | – | 42 | – | – | 12 | 56 | 12.2 | – | 11.2
